Assay results taken from patent US20240148718A1, “INHIBITING MUTANT ISOCITRATE DEHYDROGENASE 1 (mIDH-1)” (FORMA Therapeutics, Inc., priority 2018, published 2024).

Experiments:
[1] = target: BCL6 (Homo sapiens, UniProt P41182); experiment: Surface Plasmon Resonance (SPR), control surface; assay type: binding; settings: immobilized unrelated protein BCL6
[2] = system: AML/MDS harboring IDH1-R132 mutations; experiment: Phase 1 dose escalation and expansion study, investigator-assessed response; assay type: in vivo, human
[3] = system: IDH1m clone in AML patients; experiment: IDH1 Variant Allele Frequency (VAF) analysis in Phase 1 patients; assay type: in vivo, human
Procedure: Next generation sequencing was carried out through target enrichment using HaloPlex® Target followed by Illumina® sequencing; coverage>100X across 75 genes. Digitial droplet PCR (ddPCR) was carried out through an input of 20 ng on a Stilla 3-channel system; VAF data based on >20,000 droplets.
25 patients achieved an objective response and 6 patients with SD had available longitudinal samples for analysis (VAF at C3).

## C[C@H](Nc1ccc(C#N)n(C)c1=O)c1cc2cc(Cl)ccc2[nH]c1=O [Compound 1, 5-{[(1S)-1-(6-chloro-2-oxo-1,2-dihydroquinolin-3-yl)ethyl]amino}-1-methyl-6-oxo-1,6-dihydropyridine-2-carbonitrile]
[1]
  binding to control surface: no binding was observed
[2]; All Pts
  CR/CRm, n (%): 5 (16) n (%)
  CRh, n (%): 3 (9) n (%)
  Marrow CR, n (%): 1 (3) n (%)
  PD, n (%): 3 (9) n (%)
[2]; R/R AML
  CR/CRm, n (%): 4 (18) n (%)
  CRh, n (%): 3 (14) n (%)
  Cri, n (%): 2 (9) n (%)
  NE, n (%): 6 (27) n (%)
  PD, n (%): 2 (9) n (%)
  pts achieving ORR: 41%
[3]; 3 of 6 patients with stable disease
  patients with clearance/significant reduction of the IDH1m VAF: 50%
[3]; 10 of 25 patients with an IWG (objective) response, single agent or with azacitidine, VAF at ≥C3
  patients with IDH1 mutation clearance/significant VAF reduction: 40%
[3]; one treatment naive AML secondary to MDS patient, single agent, stable for 15 cycles, no IWG response
  IDH1 mutation and 2-HG, case study 2: IDH1 mutation clearance and normalization of 2-HG were observed
